# According to PubChem BioAssay AID1204 (EPA DSSTox, 2008):
# Inconclusive results are not listed. The source made the active and inactive calls.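 The calls were made as follows: active = relative estrogen receptor binding affinity above 1E-5, where estradiol scores 100; inconclusive = weak binder, under half inhibition at top dose, or affinity below 1E-5; inactive = no binding seen, affinity zero.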
# Test system: estrogen receptor (rat uterine cytosol)
# Experiment: DSSTox (NCTRER) National Center for Toxicological Research Estrogen Receptor Binding Database;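 as to relative binding affinity: ratio of estradiol IC50 over compound IC50 times 100 so estradiol equals 100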
# Conditions: rat uterine cytosol ER competitive binding, RBA; for relative binding affinity: stronger effect = higher value
# Description: Researchers within FDA's National Center for Toxicological Research (NCTR) generated a database of experimental estrogen receptor binding results for the express purpose of developing improved QSAR models to predict ER binding affinities.The NCTR ER database is a structurally diverse set of natural, synthetic, and environmental estrogens covering most known estrogenic classes and spanning a wide range of biological activity. It represents the largest published ER binding database of same-assay results generated in a single laboratory. […] Information on the percent purity and purchasing source for all chemicals are not included in the DSSTox SDF, but can be obtained from the original NCTR ER Source database and Main Citations listed below. The main citation (Fang et al., 2001) surveys the NCTR ER database from a chemical class based, structure-activity relationship (SAR) perspective. Qualitative SAR characteristics of the NCTR ER database are discussed and a set of general hierarchical rules for identifying potential estrogens are presented. The DSSTox NCTRER SDF augments the original NCTR ER database with chemical class and SAR information abstracted from Fang et al. (2001). The DSSTox SDF file supplements the measured ER relative binding affinity for each chemical (ER_RBA) with chemical class assignment to one of 6 major estrogenic classes further divided into 20 subclasses (ChemClass_ERB), along with a qualitative activity measure, ActivityCategory_ER_RBA. A brief narrative SAR rationale pertaining to ER RBA patterns observed by Fang et al. (2001) for each of the 20 subclasses within the database are provided in the field, ActivityCategory_Rationale_ChemClass_ERB. The original NCTR ER database, from which the expanded DSSTox NCTRER was formed, is contained within a larger Endocrine Disruptor Knowledge Base (EDKB) accessible from the FDA Source Website. That website provides online access to a relational database comprised of in vitro and in vivo experimental data for about 2000 natural and synthetic compounds, much of this extracted from the literature and representing testing in many laboratories. Data are included for biological assays that measure estrogenic and androgenic activity. Estrogenic endpoints include in vitro assays for estrogen receptor competitive binding affinity, cell proliferation, and reporter-gene assays, and in vivo assays for uterotrophic activity (i.e., uterine weight gain and vaginal cornification). The database also contains a bibliography of over 1200 citations, many of which include abstracts.
# Estrogen receptor relative binding affinity is determined using a competitive receptor binding assay as described in NCTRER Ref (Blair et al., 2000). Briefly, a chemical competes with radiolabeled E2 (i.e., estradiol) for binding to the ER in rat uterine cytosol and the concentration of chemical that causes 50% inhibition of E2 binding (i.e., IC50) is measured. The ER_RBA is calculated by dividing the IC50 of E2 (9X10-10M) by the IC50 of the competitor and multiplying by 100 (E2 RBA = 100). The validated assay tested 1nM E2 with concentrations of competitor ranging from 1nM to 1mM. The larger the ER_RBA values, the greater the binding affinity; ER_RBA > 100 means compound has greater binding affinity than natural ER ligand, E2. […] Activity Score is mapping of LOG_ER_RBA values (ER-RBA>1E-5), spanning activity range [MIN, MAX] onto Integer 20-100 Activity range, where 100 is highest potency and 20 is lowest active potency. If Activity Outcome is "active": Activity Score = 80 * INTEGER[(LOG_ER_RBA - MIN)/(MAX […] MIN)]. If Activity Outcome is "inconclusive" (i.e., slight binder): Activity Score = 5.
# [1] = ChemClass_ERB: Steroids Without aromatic A ring
# [2] = ChemClass_ERB: Phytoestrogens Flavones
# [3] = ChemClass_ERB: DES Hexestrol derivatives
# [4] = ChemClass_ERB: Biphenyls nonchlorinated
# [5] = ChemClass_ERB: Phytoestrogens Mycoestrogens
# [6] = ChemClass_ERB: Phytoestrogens Isoflavones
# [7] = ChemClass_ERB: Diphenylmethanes Diphenolalkanes
# [8] = ChemClass_ERB: Steroids With aromatic A ring
structure (smiles),measurement,setting,value
CCc1cccc(O)c1,relative binding affinity,ChemClass_ERB: Phenols Alkyl,0.00013%
CCOC(=O)c1ccccc1C(=O)OCC,outcome,ChemClass_ERB: Misc,inactive
C[C@]12CC[C@H](O)C[C@@H]1CC[C@@H]1[C@@H]2CC[C@]2(C)[C@@H](O)CC[C@@H]12,relative binding affinity,[1],0.12%
CC/C(=C(/CC)c1ccc(OC)cc1)c1ccc(O)cc1,relative binding affinity,ChemClass_ERB: DES Derivatives,20.4%
NCCc1ccc(O)c(O)c1,outcome,ChemClass_ERB: Misc,inactive
O=c1c(O)c(-c2ccc(O)c(O)c2)oc2cc(O)cc(O)c12,outcome,[2],inactive
CCC(c1ccc(O)cc1)C(CC)c1cc(C)c(O)c(C)c1 (centres undefined),relative binding affinity,[3],8.91%
COc1ccc(C(c2ccc(OC)cc2)C(Cl)(Cl)Cl)cc1,outcome,ChemClass_ERB: Diphenylmethanes DDTs,inactive
Oc1ccc(-c2ccccc2)cc1,relative binding affinity,[4],0.00091%
C[C@H]1CCC[C@H](O)CCC/C=C/c2cc(O)cc(O)c2C(=O)O1,relative binding affinity,[5],42.7%
O=c1c(-c2ccc(O)cc2)coc2cc(O[C@@H]3O[C@H](CO)[C@@H](O)[C@H](O)[C@H]3O)cc(O)c12,outcome,[6],inactive
CCNc1nc(Cl)nc(NC(C)C)n1,outcome,ChemClass_ERB: Misc,inactive
Cc1ccc2c(C)cccc2c1,outcome,ChemClass_ERB: Misc,inactive
CC(=O)[C@H]1CC[C@H]2[C@@H]3CCC4=CC(=O)CC[C@]4(C)[C@H]3CC[C@]12C,outcome,[1],inactive
C=CC(C)(O)CC/C=C(\C)CCC=C(C)C (centres undefined),outcome,ChemClass_ERB: Misc,inactive
O=Cc1ccco1,outcome,ChemClass_ERB: Misc,inactive
CCNc1nc(Cl)nc(NCC)n1,outcome,ChemClass_ERB: Misc,inactive
O=C1CCC(N2C(=O)c3ccccc3C2=O)C(=O)N1 (centres undefined),outcome,ChemClass_ERB: Misc,inactive
CNC(=O)Oc1cccc2c1OC(C)(C)C2,outcome,ChemClass_ERB: Misc,inactive
CCc1cccc(CC)c1N(COC)C(=O)CCl,outcome,ChemClass_ERB: Misc,inactive
Oc1ccc(Cc2ccc(O)cc2)cc1,relative binding affinity,[7],0.00095%
CCC(C)(C)c1ccc(O)cc1,relative binding affinity,ChemClass_ERB: Phenols Alkyl,0.00054%
C[C@]12CC[C@@H]3c4ccc(O)cc4CC[C@H]3[C@@H]1CC[C@H]2O,relative binding affinity,[8],3.09%
O=C(/C=C/c1ccc(O)cc1)c1ccccc1,relative binding affinity,ChemClass_ERB: Phytoestrogens Chalconoids,0.00281%
Clc1ccc(-c2ccc(Cl)cc2Cl)c(Cl)c1,outcome,ChemClass_ERB: Biphenyls PCBs,inactive
Oc1cccc(-c2ccccc2)c1,relative binding affinity,[4],0.00036%
C[C@H]1CCC[C@@H](O)CCCCCc2cc(O)cc(O)c2C(=O)O1,relative binding affinity,[5],0.646%
O=C(O)COc1ccc(Cl)cc1Cl,outcome,ChemClass_ERB: Misc,inactive
C/C(=C(/C)c1ccc(O)cc1)c1ccc(O)cc1,relative binding affinity,ChemClass_ERB: DES Derivatives,14.4%
O=c1c(O)c(-c2ccc(O)c(O)c2)oc2cc(O)ccc12,relative binding affinity,[2],0.00446%
CC(C)COC(=O)c1ccccc1C(=O)OCC(C)C,outcome,ChemClass_ERB: Misc,inactive
CCC(C)c1ccccc1 (centres undefined),outcome,ChemClass_ERB: Misc,inactive
CCC(c1ccc(C)cc1)C(CC)c1ccc(O)cc1 (centres undefined),relative binding affinity,[3],3.98%
COc1ccc(-c2coc3cc(O)ccc3c2=O)cc1,relative binding affinity,[6],0.00104%
O=S1(=O)OC(c2ccc(O)cc2)(c2ccc(O)cc2)c2ccccc21,relative binding affinity,[7],0.00056%
CCCCCCCCCCCCc1ccc(O)cc1,relative binding affinity,ChemClass_ERB: Phenols Alkyl,0.0186%
O=c1c(O)c(-c2cc(O)c(O)c(O)c2)oc2cc(O)cc(O)c12,relative binding affinity,[2],0.00177%
Nc1ccc(Oc2ccc(N)cc2)cc1,outcome,ChemClass_ERB: Misc,inactive
CCCCOC(=O)c1ccc(N)cc1,outcome,ChemClass_ERB: Misc,inactive
Oc1ccc(/C=C/c2ccc(O)cc2)cc1,relative binding affinity,ChemClass_ERB: DES Derivatives,0.282%
Clc1ccc(-c2ccccc2Cl)cc1,relative binding affinity,ChemClass_ERB: Biphenyls PCBs,0.00024%
CCCCN(C)C(=O)CCCCCCCCCC[C@@H]1Cc2cc(O)ccc2[C@H]2CC[C@]3(C)[C@@H](O)CC[C@H]3[C@H]12,relative binding affinity,[8],14.4%
CC/C(=C(/CC)c1ccc(OC)cc1)c1ccc(OC)cc1,relative binding affinity,ChemClass_ERB: DES Derivatives,0.056%
O=c1cc(-c2ccccc2)oc2ccc(O)cc12,relative binding affinity,[2],0.00038%
CN(C)c1ccc(Cc2ccc(N(C)C)cc2)cc1,outcome,ChemClass_ERB: Misc,inactive
C[C@H]1CCCC(=O)CCCCCc2cc(O)cc(O)c2C(=O)O1,relative binding affinity,[5],2.09%
O=C1C[C@@H](c2ccc(O)cc2)Oc2cc(O)cc(O)c21,relative binding affinity,ChemClass_ERB: Phytoestrogens Flavanones,0.0074%
Oc1ccc(Cl)cc1Cc1cc(Cl)ccc1O,relative binding affinity,[7],0.0035%
C[C@]12CC[C@@H]3c4ccc(O)c(O)c4CC[C@H]3[C@@H]1CC[C@@H]2O,relative binding affinity,[8],66.1%
